Test results taken from PMC9237807 (Pharmacology Research & Perspectives, 2022).

What was measured:
[1] = molecular target: T1, human β1‐adrenoceptor (Homo sapiens, UniProt P08588); assay: [3H]-DHA association kinetics; assay type: binding; settings: human β1AR, 37°C
[2] = system: human β1‐adrenoceptors; assay: Simulated association and dissociation of β-blockers from kinetic parameters; settings: 30 × K d (β1), free ligand removed at 5 min
[3] = system: human β2‐adrenoceptors; assay: as above; settings: 30 × K d (β1), free ligand removed at 5 min
[4] = molecular target: T1, human β1‐adrenoceptor; assay: [3H]-DHA competition kinetic binding assay; settings: for koff / kon: human β1AR, CHO membranes, HBSS + 100 μM GTP, 37°C, ~3 nM [3H]-DHA
[5] = molecular target: T1, human β1‐adrenoceptor; assay: [3H]-DHA equilibrium competition binding
[6] = global fit, 3 radioligand concentrations

T1 sequence (P08588 whole entry): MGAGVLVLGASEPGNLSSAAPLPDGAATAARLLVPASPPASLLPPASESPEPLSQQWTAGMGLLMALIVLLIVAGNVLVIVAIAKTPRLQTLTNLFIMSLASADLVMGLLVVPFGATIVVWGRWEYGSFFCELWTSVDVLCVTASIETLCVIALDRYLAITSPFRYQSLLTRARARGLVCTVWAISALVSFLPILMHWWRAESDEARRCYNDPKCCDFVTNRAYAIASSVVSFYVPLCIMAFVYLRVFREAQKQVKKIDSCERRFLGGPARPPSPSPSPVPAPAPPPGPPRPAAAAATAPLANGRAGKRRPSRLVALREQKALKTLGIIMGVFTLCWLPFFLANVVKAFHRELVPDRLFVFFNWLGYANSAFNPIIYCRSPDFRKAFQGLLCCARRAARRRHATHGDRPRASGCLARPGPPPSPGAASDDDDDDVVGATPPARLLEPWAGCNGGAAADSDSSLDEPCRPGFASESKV

Row | Kd [4] | koff [4] | kon [4] | Ki [5] | Molecule | other results
1 | – | – | – | – | 1‐[4,6‐propyl‐^3H]dihydroalprenolol [[^3H]‐DHA] | k off of radioligand [1, 6]: 0.00767 ± 0.0005 s⁻¹; k on of radioligand [1, 6]: 5.28 ± 0.48 × 10^8 M^−1 min^−1; Kd ([1]; read-out: K d of radioligand, from the kinetic fit): 0.94 nM
2 | – | – | – | – | CC(C)NC[C@H](O)COc1ccc(CC(N)=O)cc1 [Atenolol, (S)‐(−) atenolol] | time until receptor binding is fully reversed (simulation) ([2]; β1 and β2 adrenoceptors simulated): ≤ 5 min
3 | – | – | – | – | CC(C)NCC(O)COc1ccc(COCCOC(C)C)cc1 (centres unmarked) [Bisoprolol, bisoprolol hemifumarate] | time for full dissociation from the β1‐adrenoceptor (simulation) [2]: approximately 40 min; time for full dissociation from the β2‐adrenoceptor (simulation) [3]: a matter of seconds
4 | 0.1 ± 0.0004 nM | 0.00183 s⁻¹ | 1.85e+07 M⁻¹ s⁻¹ | 0.269 nM | CC(C)(Cc1c[nH]c2ccccc12)NCC(O)COc1ccccc1C#N (centres unmarked) [Bucindolol] | –
5 | 22.4 nM | 0.00283 ± 0.0005 s⁻¹ | 7.68 ± 0.79 × 10^6 M^−1 min^−1 | 33.9 nM | CC(C)(C)NCC(O)COc1cccc2c1CC(O)C(O)C2 (centres unmarked) [Nadolol, nadolol] | –
